Measurements reported in patent US10464925B2, “Methods to induce targeted protein degradation through bifunctional molecules” (Dana-Farber Cancer Institute, Inc., priority 2015, dated 2019).
Like-named read-outs stand apart in the source and are kept apart here.

Columns and labels:
[1] = biological target: BRDT (Homo sapiens, UniProt Q58F21); test: BRDT IC50 (Table 4); type: binding
[2] = tested on: 797; test: Cell viability, 797 cells (Table 4); type: cell-based; conditions: read-out: IC50 (nM) 797
[3] = tested on: CUTL1; test: Cell viability, ATPlite 48 hours, CUTLL1; type: cell-based; conditions: CUTL1 cells
[4] = tested on: DND41; test: Cell viability, ATPlite 48 hours, DND41; type: cell-based; conditions: DND41 cells
[5] = tested on: MOLT4; test: Cell viability, ATPlite 48 hours, MOLT4; type: cell-based; conditions: Homo sapiens, MOLT-4; MOLT4 cells
[6] = tested on: MV4; 11; test: Cell viability, ATPlite 48 hours, MV4-11; type: cell-based; conditions: Homo sapiens, 11 cells
[7] = biological target: T1, BRD4 adjoined to nanoluciferase (Nluc) (Homo sapiens, UniProt O60885+Q96SW2); test: BRD4 Dual Luciferase Assay; type: cell-based; conditions: for Emax: read-out: BRD4− Emax (percent remaining);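 as to all read-outs here: transduced reporter cells exposed to compound for 4 h, then Nluc and Fluc luminescence read, each normalized to DMSO controls and expressed as Nluc/Fluc ratio per well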
T1 construct: expressed in transfected cells

[8] = tested on: NGP; test: Cell viability, ATPlite 72 hours; type: cell-based; conditions: read-out: IC50 (nM) NGP
[9] = biological target: T2, BRD4 (Homo sapiens, UniProt O60885); test: BRD4 Cell Western (BRD4 levels in 293T cells, LiCOR); type: cell-based; parameters: BRD4 levels in the cells after the dBET treatment; endogenous in cells
[10] = biological target: T3, CRBN-DDB1 (Homo sapiens, UniProt Q96SW2); test: CRBN-DDB1 Ligand-Displacement AlphaScreen Assay (thalidomide competition); type: binding; conditions: biotin-thalidomide competition; read-out: THAL ALPHA (IC50);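 also: streptavidin donor and nickel chelate acceptor bead proximity signal after 30 min incubation, normalized with no-protein background as 0% and DMSO wells as 100% activity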
T3 construct: 6xHis (given for the complex); made in house; host or cells: Sf9 cells (Invitrogen), pFastBac

[11] = biological target: T4, CRBN (Homo sapiens, UniProt Q96SW2); test: Intracellular CRBN Engagement Assay (dFKBP7 rescue); type: cell-based; conditions: competition with 80 nM dFKBP7, 3 hours; read-out: FKBP7 rescue (EC50)
T4 construct: endogenous in cells

[12] = biological target: T2, BRD4; test: BRD4 AlphaScreen; type: binding; parameters: […]; His tag (inferred from capture on Ni-coated acceptor beads)
[13] = biological target: FKBP12 (36V) (Homo sapiens, UniProt P62942, F37V); test: FKBP12 (36V) Ligand-Displacement AlphaScreen Assay; type: binding; conditions: biotin-SLF displacement, read-out: IC50 (nM) FKBP 36V
[14] = biological target: T5, fusion of FKBP12 to nanoluciferase (Homo sapiens, UniProt P62942+Q96SW2); test: FKBP Dual Luciferase Assay, wild-type 293FT, FKBP12; type: cell-based; conditions: 4 hours; for Dmax: read-out: Max Degradation (dual luciferase, %) FKBP
T5 construct: expressed in transfected cells

[15] = biological target: T6, fusion of mutant FKBP12 to nanoluciferase (Homo sapiens, UniProt P62942+Q96SW2, F37V); test: FKBP Dual Luciferase Assay, wild-type 293FT, mutant FKBP12 (36V); type: cell-based; conditions: 4 hours; read-out: Max Degradation (dual luciferase, %) FKBP 36V
T6 construct: expressed in transfected cells

[16] = read-out: BRD4 max degradation(%) Dual Luciferase
[17] = 4 hours, read-out: max degradation (dual luc)

Row | Structure (SMILES) | IC50 [2] [nM] | Dmax [7, 16] [%] | Dmax [7, 17] [%] | Emax ([7]; BRD4 remaining at Emax) [%] | IC50 [10] [nM] | EC50 [11] [mM] | IC50 ([12]; read-out: BRD4 Alpha (IC50)) [nM] | IC50 ([12]; read-out: IC50 (nM) BRD4) [nM] | further results
1 | Cc1sc2c(c1C)C(c1ccc(Cl)cc1)=N[C@@H](CC(=O)NCCCCCCNC(=O)c1ccc3c(c1)C(=O)N(C1CCC(=O)NC1=O)C3=O)c1nnc(C)n1-2 (stereo partly shown) [dBET15] | 1270 | 18 | – | – | – | – | – | – | IC50 [1]: 93 nM; IC50 [3]: 6840 nM; IC50 [4]: 10400 nM; IC50 [5]: 6960 nM; IC50 [6]: 312 nM; Emax [7]: 78.2%; Dmax ([7]; read-out: max degradation (dual luc)): 18.2%; IC50 ([8]; NGP): > 20000 nM; Dmax ([9]; HEK-293T, read-out: BRD4 max degradation(%) Cell Western): 24%
2 | Cc1sc2c(c1C)C(c1ccc(C#N)cc1)=N[C@@H](CC(=O)NCCCCNC(=O)COc1cccc3c1C(=O)N(C1CCC(=O)NC1=O)C3=O)c1nnc(C)n1-2 (stereo partly shown) [dBET17] | 5020 | – | – | – | – | – | – | – | IC50 ([1]; read-out: IC50 (nM) BRDT): 217 nM; IC50 [3]: > 20000 nM; IC50 [4]: 17300 nM; IC50 [5]: 13500 nM; IC50 ([8]; NGP cells, Table 4): > 20000 nM
3 | Cc1sc2c(c1C)C(c1ccc(Cl)cc1)=N[C@@H](CC(=O)NCCCN1CCN(C(=O)CCCCCNC(=O)COc3cccc4c3C(=O)N(C3CCC(=O)NC3=O)C4=O)CC1)c1nnc(C)n1-2 (stereo partly shown) [dBET18] | 1360 | 37 | 36.5 | 65.4 | 1.57 | 0.749 | 11 | 11 | IC50 ([1]; read-out: IC50 (nM) BRDT): 28 nM; IC50 [3]: 2840 nM; IC50 [4]: 1790 nM; IC50 [5]: 1920 nM; IC50 ([8]; NGP cells, Table 4): 4960 nM; Dmax ([9]; HEK-293T; read-out: BRD4 max degradation(%) Cell Western): 57%
4 | Cc1c(CC#N)sc2c1C(c1ccc(Cl)cc1)=N[C@@H](CC(=O)NCCCCNC(=O)COc1cccc3c1C(=O)N(C1CCC(=O)NC1=O)C3=O)c1nnc(C)n1-2 (stereo partly shown) [dBET19] | > 20000 | > 5 | -1.3 | 93.3 | 3.62 | 4.33 | 212 | 212 | IC50 ([1]; read-out: IC50 (nM) BRDT): 1130 nM
5 | Cc1sc2c(c1C)C(c1ccc(Cl)cc1)=N[C@@H](CC(=O)NCCCCOc1cccc3c1C(=O)N(C1CCC(=O)NC1=O)C3=O)c1nnc(C)n1-2 (stereo partly shown) [dBET28] | – | > 5 | < 5 | 91.2 | 17.1 | 0.00773 | – | – | –
6 | Cc1c(C(=O)NCCCCNC(=O)COc2cccc3c2C(=O)N(C2CCC(=O)NC2=O)C3=O)sc2c1C(c1ccc(Cl)cc1)=N[C@@H](CC(=O)NCCCN1CCN(C)CC1)c1nnc(C)n1-2 (stereo partly shown) [dBET30] | – | 79 | 78.5 | 26.2 | 26.5 | 3.14 | – | – | Conc@Emax [7]: 50 µM
7 | Cc1cnc(Nc2ccc(N3CCN(C(=O)CCC(=O)NCCCCNC(=O)COc4cccc5c4C(=O)N(C4CCC(=O)NC4=O)C5=O)CC3)cc2)nc1Nc1cccc(S(=O)(=O)NC(C)(C)C)c1 (stereo not shown) [dBET32] | 5730 | 50 | 50 | – | – | – | 3300 | 3300 | –
8 | Cc1cnc(Nc2ccc(N3CCN(C(=O)CCC(=O)NCCCCCCCCNC(=O)COc4cccc5c4C(=O)N(C4CCC(=O)NC4=O)C5=O)CC3)cc2)nc1Nc1cccc(S(=O)(=O)NC(C)(C)C)c1 (stereo not shown) [dBET33] | 4000 | < 10 | 9.96 | – | – | – | 4990 | 4990 | –
9 | Cc1cnc(Nc2ccc(N3CCN(C(=O)CCC(=O)NCCCOCCOCCOCCCNC(=O)COc4cccc5c4C(=O)N(C4CCC(=O)NC4=O)C5=O)CC3)cc2)nc1Nc1cccc(S(=O)(=O)NC(C)(C)C)c1 (stereo not shown) [dBET34] | 3920 | 24 | 24 | – | – | – | 1540 | 1540 | –
10 | CCC(C)(C)C(=O)C(=O)N1CCC[C@H]1C(=O)O[C@H](CCc1ccc(OC)c(OC)c1)c1cccc(OCC(=O)NCCCCNC(=O)COc2cccc3c2C(=O)N(C2CCC(=O)NC2=O)C3=O)c1 (stereo partly shown) [dFKBP-3] | – | – | – | – | – | – | – | – | IC50 [13]: 1200 nM; Dmax [14]: 22%; Dmax [15]: 12%
11 | CCC(C)(C)C(=O)C(=O)N1CCCC[C@H]1C(=O)O[C@H](CCc1ccc(OC)c(OC)c1)c1cccc(OCC(=O)NCCCCNC(=O)COc2cccc3c2C(=O)N(C2CCC(=O)NC2=O)C3=O)c1 (stereo partly shown) [dFKBP-4] | – | – | – | – | – | – | – | – | IC50 [13]: 369 nM; DC50 [14]: 2.97 nM; Dmax [14]: 34%; Dmax [15]: 21%
12 | COc1ccc(CC[C@@H](OC(=O)[C@@H]2CCCCN2C(=O)Cc2ccccc2)c2cccc(OCC(=O)NCCCCNC(=O)COc3cccc4c3C(=O)N(C3CCC(=O)NC3=O)C4=O)c2)cc1OC (stereo partly shown) [dFKBP-5] | – | – | – | – | – | – | – | – | IC50 [13]: 2290 nM; Dmax [14]: 11%; Dmax [15]: < 5%
